The target in experiment [1] is T1, human dopamine D3 receptors (Homo sapiens, UniProt P35462).
T1 construct: expressed in transfected cells; host or cells: HEK-293
As to the kind of experiment: Dopamine D3 receptor binding, [125I]-iodosulpride displacement. The note with it: membranes of HEK-293 cells expressing human D3 receptor; 0.1 nM [125I]-iodosulpride. As to the method: (§1) The substance to be tested was either dissolved in methanol/Chremophor® (BASF-AG) or in dimethyl sulfoxide and then diluted with water to the desired concentration.
(§2) Each assay mixture was run in triplicate.
The incubation buffer contained 50 mM tris, 120 mM NaCl, 5 mM KCl, 2 mM CaCl2, 2 mM MgCl2 and 0.1% bovine serum albumin, 10 μM quinolone and 0.1% ascorbic acid (prepared fresh daily). The buffer was adjusted to pH 7.4 with HCl.
(§3) After having been incubated at 25° C. for 60 minutes, the assay mixtures were filtered through a Whatman GF/B glass fiber filter under vacuum using a cell collecting device. The filters were transferred to scintillation viols using a filter transfer system. After 4 ml of Ultima Gold® (Packard) have been added, the samples were shaken for one hour and the radioactivity was then counted in a Beta-Counter (Packard, Tricarb 2000 or 2200CA). The cpm values were converted into dpm using a standard quench series and the program belonging to the instrument.
(§4) The inhibition curves were analyzed by means of iterative nonlinear regression analysis using the Statistical Analysis System (SAS) which is similar to the “LIGAND” program described by Munson and Rodbard.

In experiment [2] the target is T2, human dopamine D2L receptors (long isoform) (Homo sapiens, UniProt P14416).
T2 construct: expressed in transfected cells; host or cells: HEK-293
T2 sequence (P14416 whole entry, canonical isoform): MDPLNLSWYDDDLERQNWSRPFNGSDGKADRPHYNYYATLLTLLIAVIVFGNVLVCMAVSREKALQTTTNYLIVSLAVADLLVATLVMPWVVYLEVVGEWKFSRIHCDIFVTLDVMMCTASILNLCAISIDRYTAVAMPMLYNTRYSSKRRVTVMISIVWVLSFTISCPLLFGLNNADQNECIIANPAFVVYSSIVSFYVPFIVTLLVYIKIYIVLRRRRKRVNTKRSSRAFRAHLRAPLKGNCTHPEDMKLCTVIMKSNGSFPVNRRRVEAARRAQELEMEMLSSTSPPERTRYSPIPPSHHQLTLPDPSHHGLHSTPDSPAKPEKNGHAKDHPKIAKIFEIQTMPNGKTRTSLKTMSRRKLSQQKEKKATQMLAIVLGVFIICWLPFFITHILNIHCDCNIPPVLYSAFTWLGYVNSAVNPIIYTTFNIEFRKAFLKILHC
Nature of the experiment: Dopamine D2L receptor binding, [125I] iodospiperone displacement. The note with it: selectivity ratio of receptor binding constants, D2L versus D3. As to the method:
as §1, §2
The incubation buffer contained 50 mM tris, 120 mM NaCl, 5 mM KCl, 2 mM CaCl2, 2 mM MgCl2 and 0.1% bovine serum albumin. The buffer was adjusted to pH 7.4 with HCl.
as §3, §4

SMILES strings stand for the structures.

T1 sequence (P35462 whole entry): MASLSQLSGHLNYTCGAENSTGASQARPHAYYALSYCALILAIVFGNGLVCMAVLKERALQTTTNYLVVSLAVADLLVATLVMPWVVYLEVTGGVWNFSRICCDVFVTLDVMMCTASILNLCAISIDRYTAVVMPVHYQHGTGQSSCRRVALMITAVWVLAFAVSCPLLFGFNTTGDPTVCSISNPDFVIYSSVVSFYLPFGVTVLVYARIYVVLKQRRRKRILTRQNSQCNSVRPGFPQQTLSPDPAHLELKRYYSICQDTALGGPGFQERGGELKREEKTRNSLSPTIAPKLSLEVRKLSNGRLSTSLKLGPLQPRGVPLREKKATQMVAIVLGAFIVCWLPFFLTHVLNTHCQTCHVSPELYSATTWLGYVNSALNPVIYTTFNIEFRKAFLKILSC

The compound `CCCN1CCC(Oc2ccc(NS(=O)(=O)c3ccc(C(C)C)cc3)c(C)n2)C1.O=C(O)/C=C/C(=O)O` (centres unmarked) [Example 61, 4-Isopropyl-N-{2-methyl-6-[(1-propylpyrrolidin-3-yl)oxy]pyridin-3-yl}benzenesulfonamide (2E)-but-2-enedioate] returned a Ki in experiment [1] of 1 to 10 nM. Also, in experiment [2], the “Ki(D2)*/Ki(D3)*” value is “+ (between 10 and 50)”.

Values taken from US8383641B2, “Aryloxyethylamine compounds suitable for treating disorders that respond to modulation of the dopamine D3 receptor” (Abbott GmbH & Co. KG, priority 2006, dated 2013).
